Assay results: patent publication US9512152B2, “Phospholipid compound containing unsaturated fatty acid derivative having cyclopropane ring” (NISHIZAKI BIOINFORMATION RESEARCH INSTITUTE, priority 2013, dated 2016)

Test system: Akt in 3T3L1-GLUT4myc adipocytes
Experiment: Akt activation, Western blotting of phospho-Akt (Thr308, Ser473)
Assay type: cell-based
Conditions: diDCP-LA-PE 1 μM, FIG. 4
Experimental: 3T3L1-GLUT4myc fibroblast strain expressing GLUT4myc was used. The cells are constructed by inserting human c-MYC epitope (14 amino acids) into the first ectodomain. The cells were cultured in Dulbecco's Modified Eagles Medium (DMEM) added with 10% (v/v) bovine serum, penicillin (final concentration, 100 U/ml) and streptomycin (final concentration, 0.1 mg/ml) in a humid environment under 5% CO2 and 95% air at 37° C. When the cells reached confluence (day 0), the medium was exchanged with DMEM added with 10% (v/v) fetal bovine serum (FBS), 1 μM dexamethasone, 0.5 mM 3-isobutyl-methyl-xanthine and 0.1 mg/ml insulin to allow for differentiation from fibroblast into adipocyte. The medium was exchanged with DMEM added with 10% (v/v) FBS on day 3, day 7 and day 11. On day 14, the cells were used for the experiment. […]
For Western blotting, the protein was separated by SDS-polyacrylamide gel electrophoresis (SDS-PAGE), and transferred onto polyvinylidene difluoride membranes. […] The immunoreactivity was detected using ECL kit (GE Healthcare, Piscataway, N.J., USA), and visualized using a chemical luminescence detection system (chemiluminescence detection system; GE Healthcare). The protein concentration of each sample was measured using BCA protein assay kit (Thermo Fisher Scientific, Waltham, Mass., USA).

Structure (SMILES): CCCCCC1CC1CC1CC1CCCCCCCC(=O)OC[C@H](COP(=O)(O)OCCN)OC(=O)CCCCCCCC1CC1CC1CC1CCCCC (stereo partly shown) [diDCP-LA-PE, 1,2-o-bis-[8-{2-(2-pentyl-cyclopropylmethyl)-cyclopropyl}-octanoyl]-sn-glycero-3-phosphatidylethanolamine]
- Akt activation (phosphorylation of Thr308 and Ser473 relative to total Akt): has an action to activate Akt
